Measurements as given in PubChem BioAssay AID256 (DTP/NCI, 2004).
“And” between values parts separate entries of the source, which are not always exact repeats. Equal entries are not always repeated. Inconclusive results and toxic doses are left out. The calls were made as follows: active = survival T/C of 150% or more; inactive = T/C below 125% in these data.

Tested on: CD2F1 mice, L1210 leukemia ip, survival T/C
Assay: NCI In Vivo Anticancer Drug Screen. Data for tumor model L1210 Leukemia (intraperitoneal) in CD2F1 (CDF1) mice
Conditions: endpoint: mean survival time, higher = longer survival
Method in brief: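 Vehicle-treated tumor-bearing mice served as controls (C) for compound-treated mice (T). Reported figure is T divided by C.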

[1] = dose: 100.0 mg/kg/injection, schedule: Q01DX009 (ip), vehicle: saline with Tween-80
[2] = dose: 200.0 mg/kg/injection, schedule: Q01DX009 (ip), vehicle: saline with Tween-80
[3] = dose: 100.0 mg/kg/injection, schedule: Q04DX003 (ip), vehicle: saline with Tween-80
[4] = dose: 100.0 mg/kg/injection, schedule: Q04DX002 (ip), vehicle: saline with Tween-80
[5] = dose: 200.0 mg/kg/injection, schedule: Q04DX002 (ip), vehicle: saline with Tween-80
[6] = dose: 400.0 mg/kg/injection, schedule: Q04DX002 (ip), vehicle: saline with Tween-80
[7] = dose: 50.0 mg/kg/injection, schedule: Q01DX009 (ip), vehicle: Klucel (hydroxypropylcellulose) (HPC)
[8] = dose: 100.0 mg/kg/injection, schedule: Q01DX009 (ip), vehicle: Klucel (hydroxypropylcellulose) (HPC)
[9] = dose: 200.0 mg/kg/injection, schedule: Q01DX009 (ip), vehicle: Klucel (hydroxypropylcellulose) (HPC)
[10] = dose: 25.0 mg/kg/injection, schedule: Q01DX009 (ip), vehicle: saline with Tween-80
[11] = dose: 200.0 mg/kg/injection, schedule: Q04DX003 (ip), vehicle: saline with Tween-80
[12] = dose: 100.0 mg/kg/injection, schedule: Q01DX009 (ip), vehicle: saline
[13] = dose: 400.0 mg/kg/injection, schedule: Q01DX009 (ip), vehicle: saline with Tween-80

Measured: T/C

COc1cc(C(=O)NNC(=O)c2ccc(Cl)cc2)cc(OC)c1OC
inactive: [1] 94 % of control | [2] 86 % of control

O=S1Cc2ccccc2C1
inactive: [3] 98 % of control

Cc1c(Cl)cccc1NC(=O)/C=C/c1ccccc1
inactive: [4] 94 % of control | [5] 102 % of control | [6] 94 % of control

CC(C)(C)c1ccc(-c2ccncc2)cc1
inactive: [4] 87 % of control | [5] 105 % of control

Cc1ccc(S(=O)(=O)N=S(C)(C)=O)cc1
inactive: [4] 98 % of control | [5] 94 % of control | [6] 94 % of control

Nc1cc2c(c[n+](Cc3ccccc3)c3ccccc23)c2ccccc12
inactive: dose: 0.39 mg/kg/injection, schedule: Q04DX003 (ip), vehicle: other 104 % of control | dose: 0.78 mg/kg/injection, schedule: Q04DX003 (ip), vehicle: other 98 % of control | dose: 1.56 mg/kg/injection, schedule: Q04DX003 (ip), vehicle: other 104 % of control | dose: 6.25 mg/kg/injection, schedule: Q04DX003 (ip), vehicle: other 91 % of control

O=c1[nH]c(=S)[nH]c(-c2ccccc2)c1Cc1c(O)ccc2ccccc12
inactive: dose: 100.0 mg/kg/injection, schedule: Q01DX001 (ip), vehicle: saline 101 % of control | dose: 200.0 mg/kg/injection, schedule: Q01DX001 (ip), vehicle: saline 100 % of control | dose: 400.0 mg/kg/injection, schedule: Q01DX001 (ip), vehicle: saline 97 % of control

CCCCC(CSC#N)SC#N (stereo unspecified)
inactive: dose: 6.25 mg/kg/injection, schedule: Q04DX002 (ip), vehicle: saline with Tween-80 92 % of control | dose: 12.5 mg/kg/injection, schedule: Q04DX002 (ip), vehicle: saline with Tween-80 88 % of control

N#CC(c1ccc([N+](=O)[O-])cc1)C(CC(=O)c1ccccc1)c1ccccc1 (stereo unspecified)
inactive: [7] 96 % of control | [8] 101 % of control | [9] 93 % of control

C[n+]1ccccc1CCC(=O)Nc1ccccc1
inactive: [10] 103 % of control | dose: 50.0 mg/kg/injection, schedule: Q01DX009 (ip), vehicle: saline with Tween-80 95 % of control | [1] 88 % of control

CCC1C(=O)OCc2c1cc1n(c2=O)C(CC)c2c-1nc1ccccc1c2Cl (stereo unspecified)
inactive: dose: 100.0 mg/kg/injection, schedule: Q04DX003 (ip), vehicle: saline 98 % of control | dose: 200.0 mg/kg/injection, schedule: Q04DX003 (ip), vehicle: saline 95 % of control | dose: 400.0 mg/kg/injection, schedule: Q04DX003 (ip), vehicle: saline 90 % of control

COc1cccc(C2Nc3cc(Cl)ccc3S2)c1O (stereo unspecified)
inactive: dose: 75.0 mg/kg/injection, schedule: Q01DX009 (ip), vehicle: other 98 % of control | dose: 150.0 mg/kg/injection, schedule: Q01DX009 (ip), vehicle: other 96 % of control | dose: 300.0 mg/kg/injection, schedule: Q01DX009 (ip), vehicle: other 102 % of control

O=c1[nH]c2ccc(I)cc2c(=O)o1
inactive: [3] 101 % of control | [11] 98 % of control | dose: 400.0 mg/kg/injection, schedule: Q04DX003 (ip), vehicle: saline with Tween-80 104 % of control

CC1=Nc2cc(Cl)c(Cl)cc2N(C)/C1=C/C1=C(Cl)C(=O)c2cc3c(Cl)ccc(Cl)c3cc2C1=O
inactive: [3] 94 % of control | [11] 97 % of control

CN(C)C(=O)c1cc[n+](Cc2ccc(Cl)c(Cl)c2)cc1
inactive: dose: 25.0 mg/kg/injection, schedule: Q01DX009 (ip), vehicle: saline 98 % of control | dose: 50.0 mg/kg/injection, schedule: Q01DX009 (ip), vehicle: saline 121 % of control | [12] 89 % of control

C=CCOC(c1ccc2c(c1)OCO2)C(C)Br (stereo unspecified)
inactive: dose: 100.0 mg/kg/injection, schedule: Q01DX001 (ip), vehicle: saline with Tween-80 94 % of control | dose: 200.0 mg/kg/injection, schedule: Q01DX001 (ip), vehicle: saline with Tween-80 94 % of control | dose: 400.0 mg/kg/injection, schedule: Q01DX001 (ip), vehicle: saline with Tween-80 94 % of control

Cc1cc2cc3n(c2nn1)N=C(Cl)CC3
inactive: dose: 61.87 mg/kg/injection, schedule: Q04DX002 (ip), vehicle: Klucel (hydroxypropylcellulose) (HPC) 103 % of control | dose: 100.0 mg/kg/injection, schedule: Q04DX002 (ip), vehicle: Klucel (hydroxypropylcellulose) (HPC) 101 % of control | dose: 123.75 mg/kg/injection, schedule: Q04DX002 (ip), vehicle: Klucel (hydroxypropylcellulose) (HPC) 105 % of control | dose: 200.0 mg/kg/injection, schedule: Q04DX002 (ip), vehicle: Klucel (hydroxypropylcellulose) (HPC) 103 % of control | dose: 247.5 mg/kg/injection, schedule: Q04DX002 (ip), vehicle: Klucel (hydroxypropylcellulose) (HPC) 109 % of control

Clc1ccc(OCCCCCNCCSSCCNCCCCCOc2ccc(Cl)cn2)nc1
inactive: dose: 75.0 mg/kg/injection, schedule: Q01DX001 (ip), vehicle: other 101 % of control | dose: 150.0 mg/kg/injection, schedule: Q01DX001 (ip), vehicle: other 103 % of control | dose: 300.0 mg/kg/injection, schedule: Q01DX001 (ip), vehicle: other 106 % of control

Cc1ccc(S(=O)(=O)NNC(=O)C2(C)CC2(C)C(=O)O)cc1 (stereo unspecified)
inactive: [1] 96 % of control | [2] 96 % of control | [13] 100 % of control

O=C(O)/C=C/C(=O)Nc1ccc(Cl)c(Cl)c1
inactive: dose: 6.25 mg/kg/injection, schedule: Q01DX009 (ip), vehicle: Klucel (hydroxypropylcellulose) (HPC) 93 % of control | dose: 12.5 mg/kg/injection, schedule: Q01DX009 (ip), vehicle: Klucel (hydroxypropylcellulose) (HPC) 96 % of control and 98 % of control | dose: 25.0 mg/kg/injection, schedule: Q01DX009 (ip), vehicle: Klucel (hydroxypropylcellulose) (HPC) 113 % of control and 104 % of control | [7] 114 % of control and 104 % of control and 110 % of control | [8] 104 % of control and 107 % of control and 109 % of control | [9] 98 % of control

CC(=O)Nc1ccccc1C#N
inactive: [1] 98 % of control | [2] 98 % of control | [13] 113 % of control

COc1cccc(C(=O)c2ccncc2C)c1OC
inactive: dose: 12.5 mg/kg/injection, schedule: Q01DX009 (ip), vehicle: water 89 % of control | dose: 25.0 mg/kg/injection, schedule: Q01DX009 (ip), vehicle: water 93 % of control | dose: 50.0 mg/kg/injection, schedule: Q01DX009 (ip), vehicle: water 93 % of control | dose: 100.0 mg/kg/injection, schedule: Q01DX009 (ip), vehicle: water 93 % of control | dose: 200.0 mg/kg/injection, schedule: Q01DX009 (ip), vehicle: water 96 % of control

C=CCOc1cccc(OCC=C)c1C
inactive: [12] 102 % of control | dose: 200.0 mg/kg/injection, schedule: Q01DX009 (ip), vehicle: saline 100 % of control | dose: 400.0 mg/kg/injection, schedule: Q01DX009 (ip), vehicle: saline 100 % of control

O=C(C=C(C(F)(F)F)C(F)(F)F)c1ccccc1Cl
inactive: dose: 12.5 mg/kg/injection, schedule: Q01DX009 (ip), vehicle: saline with Tween-80 103 % of control | [10] 102 % of control

CCC(O)(CC)c1ccc2ncccc2c1
inactive: dose: 75.0 mg/kg/injection, schedule: Q04DX003 (ip), vehicle: saline 98 % of control | dose: 150.0 mg/kg/injection, schedule: Q04DX003 (ip), vehicle: saline 97 % of control | dose: 300.0 mg/kg/injection, schedule: Q04DX003 (ip), vehicle: saline 98 % of control
